The record followed here is patent publication US20220313656A1, “NEW CLASS OF ANTIBIOTICS HAVING LOW MIC-VALUES TOWARDS DIFFERENT STRAINS OF BACTERIA” (priority 2019, published 2022).

For series [1], the system named is E. faecium. Put plainly: MIC, serial dilution method (CLSI). Type of series: cell-based, Enterococcus faecium. To be noted: Enterococcus faecium, 24 h; read-out: MIC. A digest of the protocol:
(§1)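 Broth microdilution: inocula diluted 1:100 in Müller Hinton broth are mixed with the compound, then incubated unshaken for 24 hours at 37° C. Wells are inspected visually, and the lowest growth-free concentration is taken as MIC, in duplicate.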

Series [2] has as its system E. coli APEC O2. Put plainly: MIC, serial dilution method (CLSI). Type of series: cell-based, Escherichia coli. The following applies: Escherichia coli, APECO2, 24 h; read-out: MIC. A digest of the protocol:
as §1

The subject of series [3] is S. aureus CC398. Put plainly: MIC, serial dilution method (CLSI). Type of series: cell-based, Staphylococcus aureus. The following applies: Staphylococcus aureus, MRSA, 24 h; read-out: MIC. A digest of the protocol: as §1
The test system of series [4] is S. aureus USA300. Put plainly: MIC, serial dilution method (CLSI). Type of series: cell-based, Staphylococcus aureus. The following applies: Staphylococcus aureus, USA300, 24 h; read-out: MIC. A digest of the protocol:
as §1

Series [5] concerns Staphylococus pseudintermedius. Put plainly: MIC, serial dilution method (CLSI). The following applies: Staphylococcus pseudintermedius, 24 h; read-out: MIC. Type of series: cell-based, Staphylococcus pseudintermedius. A digest of the protocol:
as §1

Series [6] concerns E. faecalis. Put plainly: MIC, serial dilution method (CLSI). Type of series: cell-based, Enterococcus faecalis. The following applies: Enterococcus faecalis, 24 h; read-out: MIC. Put shortly: as §1
Series [7] deals with Bacillus cereus. Put plainly: MIC, serial dilution method (CLSI). Type of series: cell-based. The following applies: 24 h, read-out: MIC. Put shortly:
as §1

The test system of series [8] is Streptococcus equi. Put plainly: MIC, serial dilution method (CLSI). Type of series: cell-based. To be noted: 24 h, read-out: MIC. A digest of the protocol: as §1
Series [9] has as its system Escherichia coli ESBL28. Put plainly: MIC, serial dilution method (CLSI). Type of series: cell-based. The following applies: E. coli ESBL28, Tetracycline resistant; duplicates a/b. Put shortly: as §1
Series [10] deals with Escherichia coli E5. Put plainly: MIC, serial dilution method (CLSI). Type of series: cell-based. The following applies: E. coli E5, ESBL; duplicates a/b. Put shortly:
as §1

The subject of series [11] is Escherichia coli ESBL1. Put plainly: MIC, serial dilution method (CLSI). Type of series: cell-based. To be noted: E. coli ESBL1, Tetracycline resistant; duplicates a/b. A digest of the protocol: as §1
For series [12], the system named is Salmonella enteritidis. Put plainly: MIC, serial dilution method (CLSI). Type of series: cell-based. The following applies: Salmonella enterica, ENTERITIDIS, 24 h; read-out: MIC. Put shortly:
as §1

Series [13] deals with Escherichia coli ESBL10. Put plainly: MIC, serial dilution method (CLSI). The following applies: E. coli ESBL10, Tetracycline resistant; duplicates a/b. Type of series: cell-based. A digest of the protocol: as §1
Series [14] has as its system Listeria monocytogenes. Put plainly: MIC, serial dilution method (CLSI). Type of series: cell-based. To be noted: 24 h, read-out: MIC. Put shortly: as §1
Series [15] concerns Escherichia coli E4. Put plainly: MIC, serial dilution method (CLSI). Type of series: cell-based. The following applies: E. coli E4, ESBL; duplicates a/b. Put shortly: as §1
The test system of series [16] is Escherichia coli ESBL19. Put plainly: MIC, serial dilution method (CLSI). Type of series: cell-based. To be noted: E. coli ESBL19, Tetracycline resistant; duplicates a/b. A digest of the protocol:
as §1

In series [17] the test system is Escherichia coli ESBL37. Put plainly: MIC, serial dilution method (CLSI). Type of series: cell-based. The following applies: E. coli ESBL37, Tetracycline resistant; duplicates a/b. Put shortly:
as §1

For series [18], the system named is Escherichia coli E38. Put plainly: MIC, serial dilution method (CLSI). Type of series: cell-based. To be noted: E. coli E38, ESBL; duplicates a/b. A digest of the protocol: as §1
Series [19] concerns Escherichia coli E6. Put plainly: MIC, serial dilution method (CLSI). Type of series: cell-based. To be noted: E. coli E6, ESBL; duplicates a/b. Put shortly:
as §1

In series [20] the test system is Escherichia coli E24. Put plainly: MIC, serial dilution method (CLSI). Type of series: cell-based. To be noted: E. coli E24, ESBL; duplicates a/b. A digest of the protocol: as §1
The test system of series [21] is Escherichia coli ESBL46. Put plainly: MIC, serial dilution method (CLSI). Type of series: cell-based. To be noted: E. coli ESBL46, Tetracycline resistant; duplicates a/b. Put shortly:
as §1

Series [22] deals with Staphylococcus aureus MRSA 43484. Put plainly: Murine superficial MRSA skin infection model, topical treatment. Type of series: in vivo. To be noted: for reduction of the bacterial loads compared to vehicle treatment: topical twice daily for 3 days, day 4, Balb/C mice; for efficacy in the MRSA skin infection model: formulations at 1% and 2%, compared to vehicle. The procedure:
This experiment is conducted to assess the effect of topical treatment of the compounds against MRSA. Compound S43 was evaluated for efficacy against Staphylococcus aureus MRSA 43484 in an murine skin infection model.
Treatment was performed twice daily for 3 days and sampling of skin biopsies was performed the day after last treatment. Treatment with Fucidic acid was included as a positive control and treatment with vehicle was included as a negative control.
48 Balb/C female mice—18-22 g—Taconic, Denmark, Staphylococcus aureus MRSA43484, Test compound A at 1 and 2% formulations, Test compound B at 2% formulation, Fucidin, 0.9% saline (sterile, SSI), 0.9% saline/Triton-x (sterile, SSI), Sterile water (SSI), 5% Horse Blood Agar plates (SSI), MRSA Brilliance agar plates, Nurofen® Junior (20 mg/ml, Novartis), Zoletil mix/Torbugesic (SSI/QC-BIO), Dermal curette—Miltex 335710.
Approximately 1 hour before inoculation, mice were treated orally with 45 μl nurofen (20 mg ibuprofen/ml corresponding to approximately […]) as pain relief. The mice were anaesthetized with 0.15 ml s.c. of Zoletil mix. The fur was removed from a 2×3-cm area on the back of each mouse by use of an electric shaver. Next, a razor was used to remove all the hair and hereafter the outer most layer of the skin was scraped off with a dermal curette to obtain a 1 cm^2 superficial skin lesion. 10 μl inoculum containing approximately 10^7 CFU was spread on the lesion. After the applied inoculum had dried, the mouse was placed in the cage and kept in a warming cabinet until fully awake.
Topical treatment of was initiated the day after inoculation, Day 1. Mice were treated twice daily (9 a.m and 3 p.m.) for three days. A volume of 50 μl was spread on the inoculated skin area.
Colony counts in the skin lesions were determined on day 1 (start of treatment) and day 4 (the day after completed treatment). The mice were sacrificed day 1 and 4 according to Table 1. The affected skin area was removed by a pair of scissors and tweezers, and collected in a tube for Dispomixer with 1 ml saline. The skin sample was homogenized in a Dispomixer. Each sample was serial diluted in saline/Triton-x and 20-μl spots were applied on MRSA Brillince agar plates. All agar plates were incubated 20-48 hrs at 35° C.

Series [23] concerns Campylobacter jejuni. Put plainly: MIC and MBC determination. Type of series: cell-based. To be noted: Clinical isolate. The method, then: (§2) MBC-value defines the antibiotic activities by the lowest concentration of the compound needed to kill at least 99.9% of the bacteria, also known as minimum bactericidal concentration (MBC) value.
(§3) The MIC for each compound for each bacteria strain was determined by the serial dilution method following the CLSI guidelines (CLSI Clinical and Laboratory Standards Institute: Performance Standards for Antimicrobial Susceptibility Testing: […] M100-S25. Wayne, Pa., USA; 2015.) All compounds were diluted in autoclaved H2O and stored at 4° C. […] Bacterial inoculums were prepared by inoculating 9 ml of H2O with bacterial colonies from agar plate (Oxoid, Roskilde Denmark) supplemented with bovine blood to a final yield a final density of 10^8 colony forming unit (CFU)/mL using a Sensititre™ Nephelometer (Thermo Scientific, Roskilde, Denmark). These inoculums were each in diluted 1:100 in Müller Hinton (MH) broth (Sigma, Copenhagen, Denmark). From the diluted inoculums 100 μl was transferred to each well in a 96-well plate and mixed with the compound to be MIC determined. The plate was incubated for 24 hours at 37° C. (without shaking). The MIC value was determined as the lowest concentration in which no bacterial growth could be visually detected. All MIC determinations were done in duplicates. […] Since all derivatives are new, no control strains (with reference MIC values) were available.

For series [24], the system named is Cutibacterium acnes. Put plainly: MIC and MBC determination. Type of series: cell-based. To be noted: Multiresistant clinical isolate. The method, then:
as §2, §3

For series [25], the system named is Staphylococcus epidermidis. Put plainly: MIC and MBC determination. Type of series: cell-based. The following applies: Multiresistant clinical isolate. The method, then: as §2, §3
Series [26] in a line: Mutagenicity. The following applies: data not shown. The procedure: The compound S43 was also assessed for mutagenicity.
Series [27] can be described thus: Maximum Tolerated Dose (MTD) in mice. Type of series: in vivo. The following applies: for tolerated dose: mice, observed 4-6 hrs. The procedure: This experiment is conducted to assess in vivo toxicity of the compounds. […] The study was performed at Statens Serum Institute. The Maximum Tolerated Dose (MTD) was investigated after intravenous (iv), intraperitonalt (ip) and peroral (po) dosing ranging from 5 mg/kg to 100 mg/kg.

Series [28] deals with IPEC-J2 MDR1 cells. Put plainly: Apical to basolateral transport across IPEC-J2 MDR1 cell monolayers. Type of series: in vitro ADME. The method, then:
To assess the permeability of the compounds, the apical to basolateral flux/permeability of different experimental compounds across monolayers of IPEC-J2 MDR1 cells seeded and cultured on Transwell supports was investigated.
The compounds were dissolved in ultra pure water (MilliQ) to a concentration of 1 mM and further diluted in HBSS supplemented with 0.05% BSA and 10 mM HEPES, pH 7.4 to a final concentration of 10 μM.
For transport experiments, IPEC-J2 cells were seeded onto to permeable supports (T12, Corning cci-3401) and cultured for 15-17 days. Culturemedium was changed every other day in both the apical and basolateral chamber. On the day of transport, the cells were equilibrated to ambient temperatures and the transepithelial electrical resistance (TEER) was measured across the cell monolayers. Subsequently, the cell layers were washed twice with HBSS and the TEER was measured again. The transport experiment was started by replacing the HBSS in the apical chamber with HBSS solutions of the four experimental compounds. Over a period of two hours samples of 100 μL where taken from the basolateral chamber at t=15, 30, 45, 60, 90 and 120 minutes. All samples were stored at −20° C. until analysis by means of HPLC-MS. All four compounds were tested in triplicate. After the transport study was stopped, the cell layers were washed twice with HBSS and the TEER was measured.

Take `CN(C)CCCN1c2ccccc2Sc2ccc(Cl)cc21.Cl` [Compound S1, 3-(2-chloro-10H-phenothiazin-10-yl)-N,N-dimethylpropan-1-amine hydrochloride, reference compound]: the minimal inhibitory concentration (MIC) in series [1] came out at 32 µg/mL; in [2], 64 µg/mL; in [3], 32 µg/mL; in series [4], 64 µg/mL; in [5], 32 µg/mL; in [6], 64 µg/mL. For the same compound, the minimal inhibitory concentration (MIC) in [7] was 64 µg/mL; in series [8], 16 µg/mL; in series [9] it was 32/32; in [10], 32/32; in series [11], 32/64; in series [12] it was 64 µg/mL. Further, the MIC in series [13] was 64/64; in series [14], 32 µg/mL; in series [15] it was 64/64; in series [16], 32/32; in series [17], 32/32; in series [18], 64/32. The minimal inhibitory concentration (MIC) in [19] is recorded as 32/32; in series [20], 64/32; in [21], 32/32.
For the compound `CC(C)=CCCC(C)CC[N+](C)(C)CCCN1c2ccccc2Sc2ccccc21.Cc1ccc(S(=O)(=O)[O-])cc1` (centres unmarked) [Compound S43, N-(3-(10H-phenothiazin-10-yl)propyl)-N,N,3,7-tetramethyloct-6-en-1-aminium 4-methylbenzenesulfonate], the minimal inhibitory concentration (MIC) turned out to be 2 µg/mL in [4], 1 µg/mL in [23], 1 µg/mL in series [24] and 2 µg/mL in [25]. The entries for the “reduction of the bacterial loads compared to vehicle treatment” value in series [22] (1% formulation) and in series [22] (2% formulation) were 3.0 log10 CFU and 3.7 log10 CFU, respectively. The “efficacy in the MRSA skin infection model” value in [22] (4-methylbenzenesulfonate) is listed as “significant reduction of the bacterial loads”; in [22] (listed as 43, 4-methylbenzenesulfonate), “highly effective”. Further, the values for the minimum bactericidal concentration (MBC) in [23], in [24] and in series [25] were 1 µg/mL, 1 µg/mL and 2 µg/mL, respectively. Besides, the mutagenic potential result in series [26] is reported as “did not show indications of mutagenic potential”. The tolerability result in series [27] (mice dosed twice po with 100 mg/kg) is “no signs of discomfort”. Besides, the tolerated dose result in series [27] (ip dosing) and in series [27] (iv dosing) was “up to 10 mg/kg” each time.
For `CCCCC[N+]1(C)CCCCC1CCN1c2ccccc2Sc2ccc(SC)cc21.[Br-]` (centres unmarked) [Compound S28, 1-methyl-2-(2-(2-(methylthio)-10H-phenothiazin-10-yl)ethyl)-1-pentylpiperidin-1-ium bromide], the MIC in series [1] came out at 2 µg/mL; in series [2], 64 µg/mL; in series [3], 2 µg/mL; in [4], 2 µg/mL; in series [5], 4 µg/mL; in [6], 4 µg/mL. The MIC in [7] was 2 µg/mL; in series [8] it was 2 µg/mL; in [12], 64 µg/mL; in series [14], 2 µg/mL. The “permeability across IPEC-J2 MDR1 cell monolayers” value in [28] is on record as “low”.

The term MIC denotes the lowest concentration that inhibits growth of the organism. The MBC is the smallest concentration meeting the test's criterion for killing.
